Data from publication PMC10046901, “Molecular Analysis of the Superior Efficacy of a Dual Epidermal Growth Factor Receptor (EGFR)-DNA-Targeting Combi-Molecule in Comparison with Its Putative Prodrugs 6-Mono-Alkylamino- and 6,6-Dialkylaminoquinazoline in a Human Osteosarcoma Xenograft Model” (Cells, 2023).
Entries after “also recorded” stand apart in the source; their conditions may differ.

Assays:
[1] = system: Saos-2 osteosarcoma xenograft; assay: Saos-2 xenograft tumor growth (caliper, CT); type: in vivo, NSG male mice; settings: 80 mg/kg oral gavage every other day for 20 days; end of treatment
Experimental: Animal experiments were executed in accordance with a protocol approved by the McGill Institutional Animal Care Committee (McGill University Health Centre Research Institute and McGill University, Montreal, Canada). Xenografts of the tumors were obtained via unilateral and subcutaneous injection (5 × 10^6 cells in 100 µL of a PBS1x solution) into immunodeficient NSG male mice (N = 28; 8 weeks old; weight = 30 g; Charles River, Canada). The mice were maintained at optimal temperature (24 °C) and relative humidity (50%) on a 12/12-light/dark cycle with free access to water and food. The mice were monitored clinically every day; body weights were recorded and tumor volumes were measured with a caliper using the formula 4/3 π (length/2) (width/2)^2 every other day. Once tumors reached 68 mm^3, the mice were randomly divided into 4 groups: 1 was treated with ZR2002 (N = 7), another was treated with JS84 (N = 7), another was treated with JS61 (N = 7) and the last was treated with a vehicle (N = 7). […]
All PET/CT experiments were performed using nanoScan PET/CT for small animals (Mediso Medical Imaging Systems, Budapest, Hungary). […] The mice were kept awake for 45 min before the scans and weighed, and glycemia was measured in blood drawn from the caudal artery. […] Temperature and heart rate were monitored throughout the procedure using the Mediso system. […] The CT volume-of-interest (VOI) was drawn manually on the CT and PET co-registered images. ^18F-FDG accumulation was quantified as the mean standardized uptake value (SUV) between 20 and 30 min post-injection in a 3D volume-of-interest (VOI), which was named the metabolic volume (MV), delineated semi-automatically with iso-contours at a 40% threshold of the maximal SUV [30] in the tumor on PET/CT fusion slices using the PMOD software package v3.6 (PMOD Technologies Ltd., Zürich, Switzerland). In addition, another tumor volume-based parameter, called total lesion glycolysis (TLG), was calculated according to the product between the MV and the mean SUV. […]

[2] = system: Saos-2 osteosarcoma xenograft; assay: 18F-FDG PET/CT imaging of tumors; type: in vivo, NSG male mice; settings: day 22, 80 mg/kg oral; for total lesion glycolysis (TLG): FDG-PET
Experimental: All PET/CT experiments were performed using nanoScan PET/CT for small animals (Mediso Medical Imaging Systems, Budapest, Hungary). The radiotracer 2′-deoxy-2′-[^18F]fluoro-D-glucose (^18F-FDG) was inoculated via 1 bolus injection in the tail vein (5.3 MBq in 100 µL). All animals were starved from the night before the experiment. The mice were kept awake for 45 min before the scans and weighed, and glycemia was measured in blood drawn from the caudal artery. Afterward, each mouse was placed in the scanner, with the […] at the center of the field of view. Each PET/CT session consisted of a 30 min PET emission scan followed by a 10 min CT transmission scan. The PET/CT scans were conducted under anesthesia (isoflurane 2%; medical air (0.6 L/min)) delivered via a nose cone. Temperature and heart rate were monitored throughout the procedure using the Mediso system. Images were reconstructed using expectation maximization (EM) and ordered subset expectation maximization (OSEM), normalized, and corrected for scatter, dead time and decay. The CT volume-of-interest (VOI) was drawn manually on the CT and PET co-registered images. ^18F-FDG accumulation was quantified as the mean standardized uptake value (SUV) between 20 and 30 min post-injection in a 3D volume-of-interest (VOI), which was named the metabolic volume (MV), delineated semi-automatically with iso-contours at a 40% threshold of the maximal SUV [30] in the tumor on PET/CT fusion slices using the PMOD software package v3.6 (PMOD Technologies Ltd., Zürich, Switzerland). In addition, another tumor volume-based parameter, called total lesion glycolysis (TLG), was calculated according to the product between the MV and the mean SUV. Furthermore, at the end of the imaging sessions, the tumors were resected and processed for ex vivo analysis.

Saos-2 = assay: cells; type: cell-based, human; settings: for IC50: Homo sapiens, SAOS-2, 120 h, read-out: IC50 growth inhibition
[3] = Body weight / tolerance in xenografted mice; type: in vivo, NSG male mice; settings: 80 mg/kg oral gavage every other day, 10 doses
Experimental: Animal experiments were executed in accordance with a protocol approved by the McGill Institutional Animal Care Committee (McGill University Health Centre Research Institute and McGill University, Montreal, Canada). Xenografts of the tumors were obtained via unilateral and subcutaneous injection (5 × 10^6 cells in 100 µL of a PBS1x solution) into immunodeficient NSG male mice (N = 28; 8 weeks old; weight = 30 g; Charles River, Canada). The mice were maintained at optimal temperature (24 °C) and relative humidity (50%) on a 12/12-light/dark cycle with free access to water and food. The mice were monitored clinically every day; body weights were recorded and tumor volumes were measured with a caliper using the formula 4/3 π (length/2) (width/2)^2 every other day. Once tumors reached 68 mm^3, the mice were randomly divided into 4 groups: 1 was treated with ZR2002 (N = 7), another was treated with JS84 (N = 7), another was treated with JS61 (N = 7) and the last was treated with a vehicle (N = 7). The mice were treated every other day for 20 days, receiving a total of 10 doses via oral gavage of 200 µL of a ZR2002, JS61 or JS84 solution at a dose of 80 mg/kg body weight or the vehicle (control group). The drugs were dissolved in a solution of 25% of alcohol (Greenfield, Toronto, ON, Canada), 25% of Cremophor (Sigma-Aldrich, St. Louis, MO, USA) and 50% of 0.9% NaCl (Sigma-Aldrich, St. Louis, MO, USA). The vehicle solution used the same mixture without any drug.

Compound	tumor size / growth inhibition vs vehicle (caliper and CT scan) [1]	CT tumor volume vs vehicle [2]	metabolic volume (MV) vs vehicle, FDG-PET [2]	total lesion glycolysis (TLG) [2]	fold more potent than JS84 (Saos-2) [fold]	IC50 (Saos-2) [nM]	tolerance / body weight throughout treatment [3]
ClCCNc1ccc2ncnc(Nc3cccc(Br)c3)c2c1 [ZR2002]	significantly reduced	significant reduction	significant reduction	reduction in TLG	7	80 ± 10	no significant weight loss
ClCCN(CCCl)c1ccc2ncnc(Nc3cccc(Br)c3)c2c1 [JS61]	no significant growth inhibition					1590 ± 100	no significant weight loss
CN(CCCl)c1ccc2ncnc(Nc3cccc(Br)c3)c2c1 [JS84]	no significant growth inhibition; also recorded: minor antitumor activity	not statistically different	not statistically different	reduction in TLG		250 ± 40	no significant weight loss
